Active and inactive are the calls of the source.
Tests used:
[1] = biological target: DNA dC->dU-editing enzyme APOBEC-3G (Homo sapiens, UniProt Q9HC16); test: Dose Response confirmation of small molecule APOBEC3G DNA Deaminase Inhibitors via a fluorescence-based single-stranded DNA deaminase assay. [Related pubchem assays (depositor defined):AID493012, AID493028]; type: functional
[2] = biological target: DNA dC->dU-editing enzyme APOBEC-3A (Homo sapiens, UniProt P31941); test: APOBEC3A DNA deaminase inhibitors, dose response, biochemical (AID 504722); type: functional
Chain of DNA dC->dU-editing enzyme APOBEC-3A (P31941 whole entry): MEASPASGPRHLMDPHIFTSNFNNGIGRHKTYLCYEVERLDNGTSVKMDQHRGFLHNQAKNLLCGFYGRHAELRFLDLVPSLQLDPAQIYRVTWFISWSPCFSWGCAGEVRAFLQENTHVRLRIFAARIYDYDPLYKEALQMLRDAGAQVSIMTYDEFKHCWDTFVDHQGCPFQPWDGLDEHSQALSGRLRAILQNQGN

[3] = biological target: T1, Cytochrome P450 3A4 (Homo sapiens, UniProt P08684);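 further: CYP3A4 tested as one member of a cytochrome P450 panel screen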
T1 sequence (P08684 whole entry): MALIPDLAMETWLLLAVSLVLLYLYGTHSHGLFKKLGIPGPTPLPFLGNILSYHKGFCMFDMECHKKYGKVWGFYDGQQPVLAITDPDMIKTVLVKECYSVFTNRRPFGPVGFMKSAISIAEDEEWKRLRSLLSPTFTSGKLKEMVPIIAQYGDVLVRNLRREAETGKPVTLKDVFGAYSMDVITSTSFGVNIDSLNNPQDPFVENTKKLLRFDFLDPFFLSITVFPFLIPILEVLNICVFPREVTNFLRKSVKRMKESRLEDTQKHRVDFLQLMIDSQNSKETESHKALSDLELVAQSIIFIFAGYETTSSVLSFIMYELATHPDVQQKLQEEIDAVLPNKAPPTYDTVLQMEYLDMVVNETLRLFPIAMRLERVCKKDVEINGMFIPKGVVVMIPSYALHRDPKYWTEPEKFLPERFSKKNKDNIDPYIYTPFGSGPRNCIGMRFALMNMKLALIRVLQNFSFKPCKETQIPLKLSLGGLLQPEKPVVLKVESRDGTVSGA

[4] = biological target: Cytochrome P450 2D6 (Homo sapiens, UniProt P10635);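 further: CYP2D6 member of a cytochrome P450 panel assay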
[5] = system: Vero; test: cells; type: functional; conditions: Chlorocebus sabaeus
[6] = cytotoxicity toward DRD oncogenic fibroblasts, dose response, cell-based, non-viral oncogenic, luminescence (AID 1934); type: functional; conditions: Homo sapiens
[7] = system: BJ; test: cytotoxicity toward BJ-TERT-LT-ST fibroblasts, dose response, cell-based, RAS-independent, luminescence (AID 1935); type: functional; conditions: Homo sapiens;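 further: BJ fibroblasts immortalized with TERT plus LT and ST oncogenes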
[8] = system: BJ; test: cytotoxicity toward BJ-TERT fibroblasts, dose response, cell-based, RAS-independent, luminescence (AID 1933); type: functional; conditions: Homo sapiens
[9] = system: BJ; test: cells; type: functional, cell-based; conditions: Homo sapiens
[10] = system: Vero; test: cells; type: functional, cell-based; conditions: Chlorocebus sabaeus
[11] = biological target: T2, Corticotropin-releasing factor receptor 2/Corticotropin-releasing factor-binding protein (Homo sapiens, UniProt P24387+Q13324); test: activators of CRF receptor 2 with binding protein – uHTS hits, confirmation (AID 602473); type: functional; conditions: read-out: EC50_Mean
T2 sequence (Q13324 whole entry): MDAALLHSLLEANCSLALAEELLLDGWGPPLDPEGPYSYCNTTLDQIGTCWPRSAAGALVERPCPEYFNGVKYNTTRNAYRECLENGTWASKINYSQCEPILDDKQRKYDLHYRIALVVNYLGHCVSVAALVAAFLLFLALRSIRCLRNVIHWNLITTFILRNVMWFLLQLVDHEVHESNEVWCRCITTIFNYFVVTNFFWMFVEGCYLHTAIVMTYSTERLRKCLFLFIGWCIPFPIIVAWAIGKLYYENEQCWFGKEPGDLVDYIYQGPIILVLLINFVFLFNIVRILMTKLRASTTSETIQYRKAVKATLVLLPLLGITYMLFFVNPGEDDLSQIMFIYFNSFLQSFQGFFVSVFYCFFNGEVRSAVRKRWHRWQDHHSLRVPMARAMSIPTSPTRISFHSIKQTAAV
T2 sequence (P24387 whole entry): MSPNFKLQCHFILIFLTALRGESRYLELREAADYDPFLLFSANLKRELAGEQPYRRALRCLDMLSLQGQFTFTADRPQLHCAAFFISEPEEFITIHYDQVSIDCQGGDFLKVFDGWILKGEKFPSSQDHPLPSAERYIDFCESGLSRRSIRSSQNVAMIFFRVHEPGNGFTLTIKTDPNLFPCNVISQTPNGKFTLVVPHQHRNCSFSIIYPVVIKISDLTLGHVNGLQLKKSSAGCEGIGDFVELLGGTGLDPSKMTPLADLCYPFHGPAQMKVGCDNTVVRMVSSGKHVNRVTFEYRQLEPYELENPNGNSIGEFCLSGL

[12] = biological target: T3, E3 ubiquitin-protein ligase XIAP (Homo sapiens, UniProt P98170); test: XIAP antagonists, biochemical, IAP family, fluorescence polarization (AID 1018); type: functional
T3 sequence (P98170 whole entry): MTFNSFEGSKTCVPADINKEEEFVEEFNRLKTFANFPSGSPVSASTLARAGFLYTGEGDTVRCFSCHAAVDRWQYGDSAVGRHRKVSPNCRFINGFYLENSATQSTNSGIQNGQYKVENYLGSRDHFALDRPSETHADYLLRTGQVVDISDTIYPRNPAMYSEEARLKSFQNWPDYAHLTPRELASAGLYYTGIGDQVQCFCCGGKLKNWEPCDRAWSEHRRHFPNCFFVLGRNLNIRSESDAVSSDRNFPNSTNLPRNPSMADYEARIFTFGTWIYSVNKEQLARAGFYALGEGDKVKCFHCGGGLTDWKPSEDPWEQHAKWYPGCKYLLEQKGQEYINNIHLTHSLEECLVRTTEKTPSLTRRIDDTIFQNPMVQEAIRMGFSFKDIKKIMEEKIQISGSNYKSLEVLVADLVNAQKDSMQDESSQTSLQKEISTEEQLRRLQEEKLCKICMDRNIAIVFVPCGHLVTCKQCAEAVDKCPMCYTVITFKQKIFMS

[13] = biological target: T3, E3 ubiquitin-protein ligase XIAP; test: Counter Screen using XIAP-Bir3 for Chemical Antagonists of Bir1/2 domains of IAP-family anti-apoptotic proteins. [Related pubchem assays (depositor defined):AID1018, AID1449, AID1514, AID1638, AID1749, AID1750, AID488957, AID488963]
[14] = biological target: Polyadenylate-binding protein 1 (Homo sapiens, UniProt P11940); test: PABP inhibition in translation initiation, SAR follow-up (AID 435018); type: functional
Chain of Polyadenylate-binding protein 1 (P11940 whole entry, the tested form may be a part): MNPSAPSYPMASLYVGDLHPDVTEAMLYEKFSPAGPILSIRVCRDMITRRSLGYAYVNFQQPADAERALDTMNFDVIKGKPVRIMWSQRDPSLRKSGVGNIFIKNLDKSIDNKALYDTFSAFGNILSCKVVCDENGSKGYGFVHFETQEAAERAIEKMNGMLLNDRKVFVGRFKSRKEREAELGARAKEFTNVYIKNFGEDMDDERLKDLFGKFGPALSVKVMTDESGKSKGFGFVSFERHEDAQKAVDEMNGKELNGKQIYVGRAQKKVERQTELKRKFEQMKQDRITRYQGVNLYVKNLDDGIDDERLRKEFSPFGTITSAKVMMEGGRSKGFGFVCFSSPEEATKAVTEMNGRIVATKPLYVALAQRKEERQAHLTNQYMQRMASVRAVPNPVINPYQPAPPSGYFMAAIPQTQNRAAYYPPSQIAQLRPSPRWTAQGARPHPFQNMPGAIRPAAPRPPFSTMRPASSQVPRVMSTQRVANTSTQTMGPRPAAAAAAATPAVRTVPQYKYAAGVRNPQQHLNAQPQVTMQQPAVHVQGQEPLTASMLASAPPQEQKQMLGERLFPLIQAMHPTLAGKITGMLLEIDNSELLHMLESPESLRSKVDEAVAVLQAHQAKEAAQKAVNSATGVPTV

[15] = biological target: T4, RNA-binding protein pos-1 (Caenorhabditis elegans, UniProt G5EF15); test: inhibitors of POS-1/mex-3 RNA binding, dose response, biochemical, fluorescence polarization (AID 1964);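 further: purified POS-1 fused to maltose binding protein made in E. coli; potency of compounds blocking POS-1 binding to fluorescent RNA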
T4 sequence (G5EF15 whole entry): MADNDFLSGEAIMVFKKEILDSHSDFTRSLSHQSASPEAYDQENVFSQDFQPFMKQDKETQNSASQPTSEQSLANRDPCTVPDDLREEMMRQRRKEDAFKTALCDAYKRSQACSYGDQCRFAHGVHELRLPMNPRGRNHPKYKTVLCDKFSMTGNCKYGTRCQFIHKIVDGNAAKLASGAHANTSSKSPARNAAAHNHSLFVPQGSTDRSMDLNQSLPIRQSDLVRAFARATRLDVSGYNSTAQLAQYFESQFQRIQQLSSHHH

[16] = biological target: T5, Zinc finger protein mex-5 (Caenorhabditis elegans, UniProt Q9XUB2); test: MEX-5/TCR-2 RNA interaction inhibitors, dose response, biochemical, C. elegans, fluorescence polarization (AID 1960)
T5 sequence (Q9XUB2 whole entry): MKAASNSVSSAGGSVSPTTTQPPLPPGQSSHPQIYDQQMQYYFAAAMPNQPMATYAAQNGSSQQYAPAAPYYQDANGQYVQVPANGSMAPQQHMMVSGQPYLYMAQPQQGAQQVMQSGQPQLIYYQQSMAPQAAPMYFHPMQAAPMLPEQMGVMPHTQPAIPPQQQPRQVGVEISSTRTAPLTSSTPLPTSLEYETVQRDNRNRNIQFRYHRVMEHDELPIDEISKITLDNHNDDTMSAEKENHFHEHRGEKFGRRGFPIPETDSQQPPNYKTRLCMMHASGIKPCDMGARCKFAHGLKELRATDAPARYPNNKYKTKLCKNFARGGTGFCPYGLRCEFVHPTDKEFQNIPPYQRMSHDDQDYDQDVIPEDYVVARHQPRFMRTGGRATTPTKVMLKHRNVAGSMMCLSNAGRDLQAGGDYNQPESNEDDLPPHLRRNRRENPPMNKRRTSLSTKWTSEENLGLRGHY

[17] = biological target: Eukaryotic translation initiation factor 4H (Homo sapiens, UniProt Q15056); test: eIF4H inhibition in translation initiation, SAR follow-up (AID 435011); type: functional
[18] = HEp-2 cell cytotoxicity, dose response, cytotoxicity control for RSV inhibitor project, HTS (AID 2410); type: functional; conditions: human respiratory syncytial virus
[19] = system: HEK293; test: inhibitors of LMP1-driven NF-kB reporter, dose response, cell-based, HEK293, luciferase, cherry-pick (AID 588343); type: functional; conditions: Homo sapiens
[20] = cells
[21] = biological target: T6, Calpain-2 catalytic subunit (Sus scrofa, UniProt P43367); test: pig calpain II inhibitor potency, dose response, biochemical, fluorogenic peptide substrate (AID 1420); type: functional
T6 sequence (P43367 whole entry): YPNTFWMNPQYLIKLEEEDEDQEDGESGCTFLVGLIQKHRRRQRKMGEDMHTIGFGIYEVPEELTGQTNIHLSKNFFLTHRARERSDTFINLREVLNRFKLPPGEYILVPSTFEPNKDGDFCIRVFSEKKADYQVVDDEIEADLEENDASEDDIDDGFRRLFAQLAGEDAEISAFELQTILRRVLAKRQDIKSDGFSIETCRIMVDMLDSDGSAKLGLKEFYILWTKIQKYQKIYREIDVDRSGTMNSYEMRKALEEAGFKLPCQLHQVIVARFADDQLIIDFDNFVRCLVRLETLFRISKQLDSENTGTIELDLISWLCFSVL

[22] = biological target: T7, Tyrosine-protein phosphatase non-receptor type 7 (Homo sapiens, UniProt P35236); test: HePTP (PTPN7) phosphatase inhibitor potency, SAR follow-up, biochemical, set 2 (AID 449736); type: functional
T7 sequence (P35236 whole entry): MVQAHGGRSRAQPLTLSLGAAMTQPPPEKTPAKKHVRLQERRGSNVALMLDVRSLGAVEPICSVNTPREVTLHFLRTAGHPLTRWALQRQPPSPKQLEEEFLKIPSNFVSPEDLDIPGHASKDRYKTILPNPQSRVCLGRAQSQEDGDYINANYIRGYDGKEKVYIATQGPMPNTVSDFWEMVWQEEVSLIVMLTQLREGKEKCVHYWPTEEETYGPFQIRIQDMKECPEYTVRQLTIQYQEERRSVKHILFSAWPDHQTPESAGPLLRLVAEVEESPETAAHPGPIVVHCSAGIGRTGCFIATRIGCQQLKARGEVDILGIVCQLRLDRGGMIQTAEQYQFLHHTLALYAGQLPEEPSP

[23] = biological target: T1, Cytochrome P450 3A4; remark: listed apart in the source
[24] = biological target: Cytochrome P450 2C19 (Homo sapiens, UniProt P33261); test: Cytochrome panel assay with activity outcomes. Panel member name: p450-cyp2c19 Compounds with AC50 equal or less than 10 uM are considered active; type: functional
[25] = biological target: T8, Cytochrome P450 1A2 (Homo sapiens, UniProt P05177);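 further: PubChem cytochrome P450 panel assay, CYP1A2 panel member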
T8 sequence (P05177 whole entry): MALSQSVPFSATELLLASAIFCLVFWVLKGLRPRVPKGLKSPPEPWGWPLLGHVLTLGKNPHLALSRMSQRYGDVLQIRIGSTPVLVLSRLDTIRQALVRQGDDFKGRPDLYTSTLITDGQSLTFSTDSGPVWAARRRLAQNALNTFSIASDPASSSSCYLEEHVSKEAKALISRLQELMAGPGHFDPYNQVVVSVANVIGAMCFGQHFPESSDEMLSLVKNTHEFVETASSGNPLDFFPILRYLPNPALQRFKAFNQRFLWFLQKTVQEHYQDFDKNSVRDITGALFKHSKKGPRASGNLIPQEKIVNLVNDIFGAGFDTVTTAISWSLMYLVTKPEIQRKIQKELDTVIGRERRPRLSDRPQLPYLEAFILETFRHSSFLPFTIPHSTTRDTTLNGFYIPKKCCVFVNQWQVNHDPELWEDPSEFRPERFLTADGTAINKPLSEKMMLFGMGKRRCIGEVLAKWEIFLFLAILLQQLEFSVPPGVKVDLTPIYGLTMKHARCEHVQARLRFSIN

[26] = biological target: Cytochrome P450 2C9 (Homo sapiens, UniProt P11712)
[27] = biological target: Voltage-dependent T-type calcium channel subunit alpha-1H (Homo sapiens, UniProt O95180); type: functional;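 further: channel activity triggered by adding a high calcium stimulation buffer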
Chain of Voltage-dependent T-type calcium channel subunit alpha-1H (O95180 whole entry): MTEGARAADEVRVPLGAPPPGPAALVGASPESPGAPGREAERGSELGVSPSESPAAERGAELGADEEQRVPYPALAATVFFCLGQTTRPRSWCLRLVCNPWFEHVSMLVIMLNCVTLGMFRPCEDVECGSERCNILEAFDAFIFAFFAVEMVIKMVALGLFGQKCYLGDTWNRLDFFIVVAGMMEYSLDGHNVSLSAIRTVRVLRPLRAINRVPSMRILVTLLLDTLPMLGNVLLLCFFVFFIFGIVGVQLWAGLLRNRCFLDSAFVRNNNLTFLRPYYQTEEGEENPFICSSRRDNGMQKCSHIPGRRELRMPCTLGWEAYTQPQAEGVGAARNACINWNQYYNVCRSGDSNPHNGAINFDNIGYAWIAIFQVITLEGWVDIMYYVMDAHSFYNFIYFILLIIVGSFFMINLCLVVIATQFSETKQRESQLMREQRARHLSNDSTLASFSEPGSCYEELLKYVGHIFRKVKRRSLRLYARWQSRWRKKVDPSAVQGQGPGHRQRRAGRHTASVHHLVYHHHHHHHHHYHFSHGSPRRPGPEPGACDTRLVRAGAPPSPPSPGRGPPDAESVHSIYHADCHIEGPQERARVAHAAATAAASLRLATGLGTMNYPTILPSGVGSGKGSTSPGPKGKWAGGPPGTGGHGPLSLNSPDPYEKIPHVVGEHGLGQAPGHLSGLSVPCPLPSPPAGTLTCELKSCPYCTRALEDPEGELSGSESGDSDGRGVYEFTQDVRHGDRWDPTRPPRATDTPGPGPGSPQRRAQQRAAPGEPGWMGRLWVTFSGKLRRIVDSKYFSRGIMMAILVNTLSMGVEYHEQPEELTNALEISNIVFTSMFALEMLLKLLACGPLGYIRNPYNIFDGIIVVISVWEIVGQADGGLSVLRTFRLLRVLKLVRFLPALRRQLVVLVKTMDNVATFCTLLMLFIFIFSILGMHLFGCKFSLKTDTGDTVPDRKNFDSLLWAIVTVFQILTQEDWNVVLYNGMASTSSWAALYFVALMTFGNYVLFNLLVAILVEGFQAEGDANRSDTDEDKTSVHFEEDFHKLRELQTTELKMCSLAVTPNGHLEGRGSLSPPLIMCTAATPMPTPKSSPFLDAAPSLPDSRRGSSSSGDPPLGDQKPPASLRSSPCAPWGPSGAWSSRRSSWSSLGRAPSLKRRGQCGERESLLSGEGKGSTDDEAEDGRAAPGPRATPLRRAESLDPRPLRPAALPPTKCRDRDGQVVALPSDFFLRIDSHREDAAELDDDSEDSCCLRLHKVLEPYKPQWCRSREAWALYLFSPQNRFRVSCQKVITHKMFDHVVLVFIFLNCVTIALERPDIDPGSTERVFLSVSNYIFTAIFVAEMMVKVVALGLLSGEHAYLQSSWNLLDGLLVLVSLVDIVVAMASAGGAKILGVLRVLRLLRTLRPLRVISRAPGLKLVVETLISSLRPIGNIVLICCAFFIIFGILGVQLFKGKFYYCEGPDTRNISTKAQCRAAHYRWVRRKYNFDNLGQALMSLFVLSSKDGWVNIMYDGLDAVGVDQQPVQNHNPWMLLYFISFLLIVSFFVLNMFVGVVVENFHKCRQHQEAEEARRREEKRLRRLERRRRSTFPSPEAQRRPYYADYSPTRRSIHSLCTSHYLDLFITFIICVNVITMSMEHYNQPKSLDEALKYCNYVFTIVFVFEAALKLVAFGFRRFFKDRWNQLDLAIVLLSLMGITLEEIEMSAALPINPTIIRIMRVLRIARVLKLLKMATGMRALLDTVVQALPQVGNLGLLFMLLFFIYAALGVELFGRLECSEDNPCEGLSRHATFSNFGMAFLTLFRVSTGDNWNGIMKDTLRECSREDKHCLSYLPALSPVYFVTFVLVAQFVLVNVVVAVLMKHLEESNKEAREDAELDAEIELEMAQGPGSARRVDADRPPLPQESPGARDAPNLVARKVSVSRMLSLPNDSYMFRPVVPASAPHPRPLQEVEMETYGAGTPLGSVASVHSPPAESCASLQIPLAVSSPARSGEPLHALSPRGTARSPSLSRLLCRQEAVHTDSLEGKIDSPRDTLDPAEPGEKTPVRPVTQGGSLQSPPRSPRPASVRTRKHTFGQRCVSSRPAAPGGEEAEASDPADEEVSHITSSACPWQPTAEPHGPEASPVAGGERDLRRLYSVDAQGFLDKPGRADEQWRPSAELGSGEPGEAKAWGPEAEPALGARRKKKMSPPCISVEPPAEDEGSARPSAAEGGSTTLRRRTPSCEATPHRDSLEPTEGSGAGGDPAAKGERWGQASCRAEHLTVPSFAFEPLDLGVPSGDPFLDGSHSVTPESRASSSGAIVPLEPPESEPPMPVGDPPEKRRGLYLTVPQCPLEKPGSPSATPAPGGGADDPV

Chain of DNA dC->dU-editing enzyme APOBEC-3G (Q9HC16 whole entry): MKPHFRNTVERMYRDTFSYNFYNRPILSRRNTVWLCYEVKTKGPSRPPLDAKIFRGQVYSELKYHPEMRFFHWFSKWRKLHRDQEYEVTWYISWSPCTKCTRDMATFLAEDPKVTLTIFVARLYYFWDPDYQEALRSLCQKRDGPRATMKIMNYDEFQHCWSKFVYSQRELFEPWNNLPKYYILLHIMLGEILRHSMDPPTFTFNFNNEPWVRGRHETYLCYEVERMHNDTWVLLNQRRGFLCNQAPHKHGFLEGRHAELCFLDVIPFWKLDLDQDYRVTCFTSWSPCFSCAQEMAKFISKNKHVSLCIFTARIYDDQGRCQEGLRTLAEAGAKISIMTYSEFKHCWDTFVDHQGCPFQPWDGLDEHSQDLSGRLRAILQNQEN

For `CCCCn1c(S)nnc1-c1ccc([N+](=O)[O-])cc1`, the IC50 [1] was 3.5 µM (active) and the IC50 [2] was > 100 µM (inactive).
With `Cn1c(=O)n(C)c2cc([N+](=O)[O-])c(N3CCN(C(=O)c4ccccc4Cl)CC3)cc21` the AC50 [3] was “inconclusive” and the AC50 [4] was 35.5 nM (inconclusive).
With `Cc1ccc(N(Cc2cc(O)nc3ccccc23)C(=O)CCl)cc1` the CC50 [5] was 6.57 µM (active), the EC50 [6] was 4.97 µM (inconclusive) and the EC50 [7] was 8.14 µM (inconclusive). For the same compound, the EC50 [8] was 1.19 µM (inconclusive), the EC50 [9] was 8.7 µM (active) and the IC50 [10] was > 25 µM (active).
With `CCn1c(CCNC(=O)c2ccc(OC)cc2)nnc1SCc1ccc(Cl)c(Cl)c1` the EC50 [11] was > 53 µM (inactive), the IC50 [12] was > 100 µM (not active) and the IC50 [13] was > 100 µM (inactive).
For `C=CCn1c(S)nnc1-c1sc2nc(C)cc(C)c2c1N`, the IC50 [1] was 3.28 µM (active) and the IC50 [2] was > 100 µM (inactive).
With `CC(C)(C)c1ccc(C(=O)Nc2cccc3ncccc23)cc1` the IC50 [14] was 1.32 µM (active), the EC50 [15] was 8.65 µM (active) and the EC50 [16] was 5.39 µM (active). The IC50 [17] was 1.14 µM (active).
With `Clc1ccc(COn2c(-c3ccccc3)nc3ccccc32)cc1` the AC50 [3] was “inconclusive”.
In the case of `C#CCn1c(S(=O)(=O)Cc2ccc(F)cc2)nc(-c2ccccc2)c1-c1ccccc1`, the CC50 [5] is reported as 22.2 µM (active), the CC50 [18] is reported as 3.47 µM (active) and the AC50 [19] is reported as 21.7 µM (active). For the same compound, the IC50 [10] was 3.94 µM (active) and the IC50 [20] was 4.97 µM (active).
For `OCC1(CCc2ccccc2)CCN(Cc2ccc(OC(F)F)cc2)CC1`, the IC50 [12] was > 100 µM (not active) and the IC50 [13] was > 100 µM (inactive).
In the case of `CCCCSc1nnc2c(n1)OC(C(=O)c1ccccc1)Nc1ccccc1-2` (stereo not given), the IC50 [21] is reported as > 50 µM (not active), the IC50 [12] is reported as > 50 µM (not active) and the IC50 [13] is reported as > 100 µM (inactive).
For `Nc1c(C(=O)N2CCOCC2)sc(=S)n1-c1ccc(F)c(Cl)c1`, the IC50 [22] was > 100 µM (inactive).
In the case of `COc1ccccc1N=C1SC(C(=O)Nc2ccccc2)CC(=O)N1C` (stereo not given), the IC50 [14] is reported as > 100 µM (inactive) and the IC50 [17] is reported as > 100 µM (inactive).
With `CCOC(=O)N/N=C/c1ccc(Oc2ccccc2)cc1` the IC50 [12] was > 100 µM (not active) and the IC50 [13] was > 100 µM (inactive).
With `Cc1nnc(S)n1/N=C/c1ccc(Br)o1` the IC50 [1] was 6.93 µM (active), the AC50 [23] was 25.1 µM (inconclusive) and the AC50 [24] was “inconclusive”. The IC50 [2] was > 100 µM (inactive).
For `Sc1nc(-c2ccccc2)cn1/N=C/c1ccncc1`, the IC50 [1] was 2.93 µM (active) and the IC50 [2] was > 100 µM (inactive).
For `O=c1[nH]c2ccccc2n1CCCN1CCN(C(c2ccccc2)c2ccccc2)CC1` [OXATOMIDE], the AC50 [25] was 25.1 µM (inconclusive), the AC50 [26] was 7.94 µM (inconclusive) and the AC50 [3] was “inconclusive”. For the same compound, the EC50 [27] was 5.15 µM (active).

Reference: ChEMBL document CHEMBL1201862, “PubChem BioAssay data set” (2004)
